# Measured values: paper PMC11170107, “Development of a new hazard scoring system in primary neuronal cell cultures for drug-induced acute neuronal toxicity identification in early drug discovery” (Frontiers in Pharmacology, 2024)
# “Also recorded” adds a separate entry of the source. Where two headings read alike, the source gives them in different places.
# Key:
# [1] = test system: rat primary cortical neurons; test: MEA hazard scoring in rat primary cortical neuronal cultures; conditions: for hazard classification in the hazard scoring system: rat primary neurons on MEA; for Area.Under.Cross.Correlation Lower.TI / Area.Under.Cross.Correlation Upper.TI / Burst.Duration...Avg.(s. Lower.TI) / Burst.Duration...Avg.(s. Upper.TI) / Mean.Firing.Rate..Hz. Lower.TI / Mean.Firing.Rate..Hz. Upper.TI / Median.Mean.ISI Lower.TI / Median.Mean.ISI Upper.TI: statistical tolerance interval of the ΔΔ% effect, One-sided interval
# Protocol: (§1) At DIV28, spontaneous neuronal activity obtained for 30 min in culture solution was defined as the baseline.
# (§2) Data analysis was captured using AxIs suite software (Axion Biosystems Inc., version 3.6.2) and further analyzed using GraphPad Prism (version 9.00; GraphPad Software Inc., San Diego, CA). […] An active well should have more than 40% active electrodes. All wells below this threshold were discarded upon these quality criteria. For the downstream statistical analysis, the data on each MEA parameter was first expressed as the ratio of exposed wells (percentage change between baseline and the treatment) and then normalized to the average of the control within the same plate. i.e., Baseline corrected ratios of n= 7 or eight wells were averaged per condition. Each well of the MEA served as its own control, and the changes in the electrical activity elicited by the treatments were expressed as a percentage of that control activity and normalized to the wells treated with the vehicle control dimethyl sulfoxide (DMSO). […] Differences were determined using the non-parametric Wilcoxon Mann Whitney test; p-values below 0.05 were considered significant. Data are expressed as means ± S.E.M.
# (§3) Thereafter, based on the effects of vehicles and positive controls, we determined the cut-off points between the different effect zones according to the key parameters selected as described in the previous subsection. The zones were defined as follows. The “no effect” zone reflects parameter changes that are most likely within vehicle variability. The “mild” and “strong” zones are differentiated bidirectionally showing mild and strong effects.
# (§4) The respective hazard class was determined by a cumulative scoring of individual parameters using a scoring matrix, which was based on the following three fundamental components: (1) selection of the six key relevant parameters, (2) defining the cutoffs for the level of effect, and (3) defining weighted points per parameter for the level of hazard potential. The scoring matrix concluded with the addition of a weighted point algorithm to discriminate distinct degrees of neuronal hazard. […] The weighted points were defined on the importance of a parameter (and the direction of effect), as well as the identification of an expected hazard for different pharmacological modes of action. The overall hazard score is derived from the sum of all weighted parameters, which could be converted into a specific hazard label. The weighted points and total score range associated with the various hazard labels were optimized using an iterative process.
# [2] = WHO adverse drug reactions VigiBase; ref Kumlien and Lundberg, 2010; cited from earlier work
# [3] = ref National library of medicine, Daylimed; cited from earlier work
# [4] = Supplementary Table S1; cited from earlier work
# [5] = seizure ADR frequency in SIDER; ref Campillos et al., 2008; Kuhn et al., 2010; cited from earlier work
# [6] = established from VigiBase, SIDER, Elsevier drug information and FDA prescribing information
# [7] = test system: rat primary cortical neurons
# Protocol: as §1, §2, §3, §4
Compound,Percentage seizures of total number of ADRs [2],FDA prescription information at therapeutic dose (Convulsion/ Seizure/Lower the seizure threshold/withdrawal) [3],Free Cmax highest [4],SIDER ADR on-/off-label [5],Classification* (degree of seizure risk) [6],also measured
N=C(N)NC(=O)c1nc(Cl)c(N)nc1N [Amiloride],0.3506%,not found on label,74.6 nM,not found on label,No risk,hazard classification in the hazard scoring system [1]: high seizure risk; firing rate (weighted mean firing rate) in MEA recordings ([1]; rodent cortical neurons in vitro): increase of activity
CC(=O)Oc1ccccc1C(=O)O [Aspirin],0.216%,not found on label,43400 nM,not found on label,No risk,–
O=C(CCCl)NCc1ccccc1 [Beclamide],0%,–,–,–,Low risk,hazard classification in the hazard scoring system [1]: high hazard
CC(C)C[C@H]1C(=O)N2CCC[C@H]2[C@]2(O)O[C@](NC(=O)[C@@H]3C=C4c5cccc6[nH]c(Br)c(c56)C[C@H]4N(C)C3)(C(C)C)C(=O)N12 [Bromocriptine],3.063%,On label,1.4 nM,postmarketing,Risk,–
CN1C(=O)CN=C(c2ccccc2)c2cc(Cl)ccc21 [Diazepam],–,On label,–,–,–,hazard score group in Figure 3 [7]: Neuro Active to high hazard
CCN(CC)C(=O)/C(C#N)=C/c1cc(O)c(O)c([N+](=O)[O-])c1 [Entacapone],0.4204%,not found on label,130 nM,no frequency information,Risk,–
CN1C[C@H](C(=O)N[C@]2(C)O[C@@]3(O)[C@@H]4CCCN4C(=O)[C@H](Cc4ccccc4)N3C2=O)C=C2c3cccc4[nH]cc(c34)C[C@H]21 [Ergotamine],0.8818%,not found on label,0.4 nM,not found on label,Risk,hazard score group in Figure 3 [7]: Neuro Active to high hazard
NC(=O)OCC(COC(N)=O)c1ccccc1 [Felbamate],9.4112%,on label,181000 nM,not found on label,Low risk,–
CNCCC(Oc1ccc(C(F)(F)F)cc1)c1ccccc1 (stereo not shown) [Fluoxetine],1.97%,On label,470 nM,uncommon,Risk,–
NCC1(CC(=O)O)CCCCC1 [Gabapentin],1.766%,On label,2080 nM,postmarketing,Risk,hazard score group in Figure 3 [7]: Neuro Active to high hazard
NCC(=O)O [Glycine],–,not found on label,–,no frequency information,–,hazard score group in Figure 3 [7]: Neuro Active to hazard
COc1cc(C(C)=O)ccc1OCCCN1CCC(c2noc3cc(F)ccc23)CC1 [Iloperidone],1.653%,not found on label,12 nM,not found on label,Low risk,–
CNC1(c2ccccc2Cl)CCCCC1=O (stereo not shown) [Ketamine],1.967%,not found on label,1740 nM,no frequency information,Low risk,–
Nc1nnc(-c2cccc(Cl)c2Cl)c(N)n1 [Lamotrigine],7.325%,On label,8600 nM,1.9% - 4%,Risk,–
O=C1Nc2ccc(Cl)cc2C(c2ccccc2Cl)=NC1O (stereo not shown) [Lorazepam],1.949%,on label,22 nM,postmarketing — 0.769%,Risk,–
CN1CCN(C2=Nc3ccccc3Oc3ccc(Cl)cc32)CC1 [Loxapine],1.962%,On label,44 nM,no frequency information,Risk,–
NC(=O)C[S+]([O-])C(c1ccccc1)c1ccccc1 (stereo not shown) [Modafinil],1.739%,not found on label,19600 nM,postmarketing,Risk,–
NCc1cc(=O)[nH]o1 [Muscimol],–,–,–,–,Risk,Area.Under.Cross.Correlation Lower.TI [1]: -100; Area.Under.Cross.Correlation Upper.TI [1]: -21.99; Burst.Duration...Avg.(s. Lower.TI) [1]: -100; Burst.Duration...Avg.(s. Upper.TI) [1]: 465.5; Mean.Firing.Rate..Hz. Lower.TI [1]: -100; Mean.Firing.Rate..Hz. Upper.TI [1]: -23.34; Median.Mean.ISI Lower.TI [1]: -100; Median.Mean.ISI Upper.TI [1]: 1.885
CN1CCC[C@H]1c1cccnc1 [Nicotine],–,not found on label,180 nM,not found on label,–,hazard classification in the hazard scoring system [7]: non-neuroactive; hazard score group in Figure 3 [7]: Non-Neuro Active
N#Cc1ccccc1-c1cc(-c2ccccn2)cn(-c2ccccc2)c1=O [Perampanel],7.31%,not found on label,163 nM,not found on label,Low risk,hazard classification in the hazard scoring system [1]: hazards; also recorded: high hazard
CCOC(=O)C1(c2ccccc2)CCN(C)CC1 [Pethidine],–,–,250 nM,no frequency information,–,hazard score group in Figure 3 [7]: Neuro Active to hazard
CC(C)C[C@H](CN)CC(=O)O [Pregabalin],0.8034%,–,–,–,–,hazard score group in Figure 3 [7]: Non-Neuro Active
CCN(CC)CCCC(C)Nc1c2ccc(Cl)cc2nc2ccc(OC)cc12 (stereo not shown) [Quinacrine],1.17%,not found on label,130 nM,–,No risk,–
CS(=O)(=O)c1ccc(C2=C(c3ccccc3)C(=O)OC2)cc1 [Rofecoxib],1.2136%,–,130 nM,not found on label,No risk,–
C[N+](C)(C)CCOC(=O)CCC(=O)OCC[N+](C)(C)C [Succinylcholine],0.792%,not found on label,170 nM,not found on label,No risk,–
CNS(=O)(=O)Cc1ccc2[nH]cc(CCN(C)C)c2c1 [Sumatriptan],0.8281%,On label,388 nM,rare (<0.1%),Risk,–
Cc1ccc(C(=O)c2cc(O)c(O)c([N+](=O)[O-])c2)cc1 [Tolcapone],0.8264%,not found on label,10 nM,not found on label,No risk,–
CN1[C@@H]2CC[C@H]1C[C@@H](OC(=O)c1c[nH]c3ccccc13)C2 [Tropisetron],1.067%,–,80 nM,not found on label,No risk,–
Cc1ccc(Nc2nccc(N(C)c3ccc4c(C)n(C)nc4c3)n2)cc1S(N)(=O)=O [pazopanib],0.4565%,not found on label,1330 nM,not found on label,Risk,–
Picrotoxin,–,–,–,–,Risk,Area.Under.Cross.Correlation Lower.TI [1]: -46.52; Area.Under.Cross.Correlation Upper.TI [1]: 62.45; Burst.Duration...Avg.(s. Lower.TI) [1]: -2.013; Burst.Duration...Avg.(s. Upper.TI) [1]: 280.4; Mean.Firing.Rate..Hz. Lower.TI [1]: -10.62; Mean.Firing.Rate..Hz. Upper.TI [1]: 76.43; Median.Mean.ISI Lower.TI [1]: -29.71; Median.Mean.ISI Upper.TI [1]: 0.6132
